From patent US9624266B2, “Brachiatin D and process for production thereof” (COUNCIL OF SCIENTIFIC & INDUSTRIAL RESEARCH, priority 2013, dated 2017)
“And” between values parts separate entries of the source, which are not always exact repeats. Equal entries are not always repeated. Non-standard residues stand in square brackets, D forms with d. Residues, ends and D or L forms follow the SMILES beside them. *: point of attachment. Aib = CC(C)(N)C(=O)O; X1 = CCC(C)C(CO)N*

What was measured:
MCF-7 = test: MTT cytotoxicity assay, MCF-7 breast cell line; assay type: cell-based, human; settings: for % growth inhibition: MCF-7, 1 μM
Description: (§1) For Cytotoxic assay, the MTT assay is useful for measuring the effect of a wide range of compounds on the in vitro growth of either normal or cancer cell lines. The assay was set up in a 96-well, flat-bottomed polystyrene microtiter plate. 3-5000 cancer cells were suspended per well in appropriate growth medium, and the cells were added in duplicate wells (triplicates were preferred). It was preferable to add the cells to the required number of wells in the plate prior to adding the peptaibol. After the cells were added to the plate, it was placed on an incubator for overnight incubation. After overnight incubation, the peptaibol was added at defined concentrations of 10, 20 and 50 μM to each set of duplicate wells and incubated for 48 hrs in CO2 incubator. The peptaibol was dissolved in dimethyl sulfoxide (DMSO) for the final addition. After 48 hr incubation, the MTT stock solution (2.5 μg/ml) was diluted with an equal volume of tissue culture medium and 20 μl of this solution was added directly to each well with a multichannel pipette. The plates were returned to the incubator for a period of at least 4 h. After 4 hr incubation, the plates were centrifuged at 1000 rpm for 10 min at ambient temperature, followed by inversion of the plates and blotting of excess medium. 150 μl of working DMSO was added to solubilize the MTT formazan product. A standard micro plate reader with adjustable wavelength across the visible spectrum was used. The OD values at 570 nm obtained for each set of triplicates corresponding to a specific concentration of a peptaibol was then transferred into a spreadsheet program.
Cytotoxicity assay was performed on a panel of cancer cell lines using fraction 4 (HF-4) as a test material. In order to determine their effect on cell proliferation, A-549 (lung cell line), HEP-2 (liver cell line), MCF-7 (breast cell line), monkey normal cell line (CV-1), OVCAR-5 (ovary cell line) and THP-1 (leukemia cell line) were treated at indicated concentration of 50 μM for 48 h. […]

IL-6 = IL-6 in LPS stimulated cell culture supernatant (ELISA); assay type: cell-based, mouse; settings: LPS 1 μg/ml, 24 h
Description: (§2) For the estimation of pro-inflammatory cytokines (TNF-α, IL-1β and IL-6) in spleen cell culture supernatant, the splenocytes (2×10^6 cells) were seeded into a 96-well flat-bottom microtiter plate in 100 μl complete medium [RPMI 1640 supplemented with 12 mM HEPES (pH 7.1), 0.05 mM 2-mercaptoethanol, 100 IU/mL penicillin, 100 μg/mL streptomycin and 10% FCS]. Thereafter, variable does of purified peptaibol (brachiatin D) (0.001, 0.01 and 0.1 μM) were added giving a final volume of 200 μl. After subsequent stimulation with 1 μg/ml LPS for 24 h, the supernatants were harvested. The concentrations of TNF-α, IL-1β and IL-6 in culture supernatants were measured using mouse TNF-α, IL-1β and IL-6 ELISA kits (R&D Systems, USA), as per the instructions of the manufacturer
as §2, with “For” for “For the”, “medium.” for “medium [RPMI 1640 supplemented with 12 mM HEPES (pH 7.1), 0.05 mM 2-mercaptoethanol, 100 IU/mL penicillin, 100 μg/mL streptomycin and 10% FCS].”, “brachiatin D” for “peptaibol (brachiatin D)”, “manufacturer. […]” for “manufacturer”

TNF-α = TNF-α in LPS stimulated cell culture supernatant (ELISA); assay type: cell-based, mouse; settings: LPS 1 μg/ml, 24 h, dose dependent, 0.001-0.1 dose range
Description: as §2
as §2, with “For” for “For the”, “medium.” for “medium [RPMI 1640 supplemented with 12 mM HEPES (pH 7.1), 0.05 mM 2-mercaptoethanol, 100 IU/mL penicillin, 100 μg/mL streptomycin and 10% FCS].”, “brachiatin D” for “peptaibol (brachiatin D)”, “manufacturer. […]” for “manufacturer”

lymphocyte proliferation = test: Lymphocyte proliferation assay (splenocytes, MTT); assay type: cell-based, mice; settings: concentration range 0.001 μM-10 μM
Text: For Lymphocyte Proliferation Assay, the organic crude extract and then the purified peptaibol was taken for lymphocyte proliferation assay to check their activity by the following procedure. The mice spleen was collected from a live animal after sacrificing it under aseptic conditions in HBSS. The spleen was then minced using a pair of scissors and passed through a fine steel mesh to obtain a homogeneous cell suspension and the erythrocytes were lysed with ammonium chloride (0.8%, w/v). After centrifugation (380×g at 4° C. for 10 min), the pelleted cells were washed three times with PBS and resuspended in complete medium [RPMI 1640 supplemented with 12 mM HEPES (pH 7.1), 0.05 mM 2-mercaptoethanol, 100 IU/mL penicillin, 100 µg/mL streptomycin and 10% FCS]. The cell number was counted with a haemocytometer by the trypan blue dye exclusion technique. Cell viability exceeded 95%.
Splenocytes (2×10^6 cells) were then seeded into a 96-well flat-bottom microtiter plate in 100 μl complete medium. Thereafter, variable doses of the test material along with LPS (1 μg/ml) to stimulate B cell proliferation were added giving a final volume of 200 μl. Test materials used in this assay were variable doses of the purified peptaibol (0.001, 0.01 and 0.1 μM). […] 200 μl of DMSO (192 μl DMSO with 8 μl IN HCl) was added to each well, and the absorbance was determined in an ELISA reader at 570 nm after 15 min. […]

NO = test: Inhibition of nitric oxide (nitrite) in LPS treated macrophages; assay type: cell-based, mouse
Description: NO is a short-lived molecule. […] Large quantity of nitrite is produced by macrophage when stimulated with LPS. But when cells were treated with brachiatin D, it was observed that brachiatin D inhibited LPS stimulated production of nitrite (p<0.001 at 0.001 μM dose).

THP-1 = test: cells; assay type: cell-based, human; settings: for % growth inhibition: THP-1, 20 μM, 20 µM
Description: as §1
(§3) Cytotoxicity assay was performed on a panel of cancer cell lines using fraction 4 (HF-4) as a test material. In order to determine their effect on cell proliferation, A-549 (lung cell line), HEP-2 (liver cell line), MCF-7 (breast cell line), monkey normal cell line (CV-1), OVCAR-5 (ovary cell line) and THP-1 (leukemia cell line) were treated at indicated concentration of 50 μM for 48 h. […] 5-flurouracil and adriyamycin were used as the positive controls; 5-flurouracil inhibited the growth of lung and leukemia cancer cell lines upto 75% and 83% respectively. Moreover adriyamycin used at 1 μM could inhibit the proliferation of MCF-7 cells upto 73%.
(§4) Cytotoxicity assay based on MTT was performed on a panel of cancer cell lines using brachiatin D as a test material. […] 5-flurouracil and adriyamycin were used as the positive controls; 5-flurouracil inhibited the growth of lung and leukemia cancer cell lines upto 73%, […] 88% respectively. Adriyamycin used at 1 μM could inhibit the proliferation of MCF-7 cells upto 77%.

A-549 = test: cells; assay type: cell-based, human; settings: for % age growth inhibition: A-549, 10 μM, 10 µM; for % growth inhibition: A-549, 20 μM, 20 µM
Description: as §1, §3, §4

MiaPaCa-2 = test: MTT cytotoxicity assay, MiaPaCa-2 pancreatic cell line; assay type: cell-based, human; settings: MiaPaCa-2, 10 μM
Description: as §1, with “150 μl of working DMSO was added to solubilize the MTT formazan product.” left out, “The OD values at 570 nm obtained for each set of triplicates corresponding to a specific concentration of a peptaibol was then transferred into a spreadsheet program.” left out

PC-3 = test: MTT cytotoxicity assay, PC-3 prostate cell line; assay type: cell-based, human; settings: PC-3, 10 μM
Description: as §1, with “150 μl of working DMSO was added to solubilize the MTT formazan product.” left out, “The OD values at 570 nm obtained for each set of triplicates corresponding to a specific concentration of a peptaibol was then transferred into a spreadsheet program.” left out

HOP-62 = test: MTT cytotoxicity assay, HOP-62 lung cell line; assay type: cell-based, human
Description: as §1, §4

IL-1β = IL-1β in LPS stimulated cell culture supernatant (ELISA); assay type: cell-based, mouse; settings: LPS 1 μg/ml, 24 h
Description: as §2
as §2, with “For” for “For the”, “medium.” for “medium [RPMI 1640 supplemented with 12 mM HEPES (pH 7.1), 0.05 mM 2-mercaptoethanol, 100 IU/mL penicillin, 100 μg/mL streptomycin and 10% FCS].”, “brachiatin D” for “peptaibol (brachiatin D)”, “manufacturer. […]” for “manufacturer”

COc1cccc2c1C(=O)c1c(O)c3c(c(O)c1C2=O)C[C@@](O)(C(=O)CO)C[C@@H]3O[C@H]1C[C@H](N)[C@H](O)[C@H](C)O1 [Adriyamycin]
% growth inhibition (MCF-7): 73% | % growth inhibition (MCF-7; 1 µM): ≤ 73%

CCC(C)C(CO)NC(=O)C1CCCN1C(=O)C(CC(C)C)NC(=O)C(CC(N)=O)NC(=O)C(C)(C)NC(=O)C1CCCN1C(=O)C(C)(C)NC(=O)C(CC(C)C)NC(=O)C(C)(C)NC(=O)C(CC(N)=O)NC(=O)C(C)(C)NC(C)=O (stereo not drawn) [Brachiatin D, AcAib-Asn-Aib-Leu-Aib-Pro-Aib-Asn-Leu-Pro-Ileuol] (Ac-[Aib]N[Aib]L[Aib]P[Aib]NLP-X1; configuration not given here)
effect on LPS induced IL-6 (IL-6): inhibited | inhibition of TNF-α production (TNF-α): up to 42% | activity against lymphocyte proliferation (lymphocyte proliferation): good activity | LPS stimulated production of nitrite (NO; 0.001 μM dose, p<0.001): inhibited | NO production (NO; 0.1 μM, p<0.05): Marginal increase | % age growth inhibition (THP-1; THP-1, 10 μM): 56% | % growth inhibition (THP-1): 77% | % growth inhibition (THP-1; listed as brachiatin D): > 75% | % age growth inhibition (A-549): 63% | % age growth inhibition (A-549; listed as brachiatin D): ≤ 63% | % growth inhibition (A-549): 96% | % growth inhibition (A-549; listed as brachiatin D): > 95% | % age growth inhibition (MCF-7; MCF-7, 10 μM): 100% | % age growth inhibition (MiaPaCa-2): 100% | % age growth inhibition (PC-3): 100% | sensitivity of the cell line to cytotoxic effects (HOP-62; HOP-62): much resistance | % age growth inhibition (HOP-62; HOP-62, 10 μM): 21% | % age growth inhibition (HOP-62; HOP-62, 20 μM): 35% | effect on LPS induced IL-1β (IL-1β): inhibited

O=c1[nH]cc(F)c(=O)[nH]1 [5-Fluorouracil, reference compound]
inhibition at 20 µM (THP-1; Homo sapiens, THP-1, THP-1, 20 μM, read-out: % growth inhibition): ≤ 83% | % growth inhibition (THP-1): 83% and 88% | % growth inhibition (A-549): 75% and 73% | inhibition at 20 µM (A-549; Homo sapiens, A549, A-549, 20 μM, read-out: % growth inhibition): ≤ 75% | % age growth inhibition (HOP-62; HOP-62, 20 μM, 20 µM): 81% | inhibition at 20 µM (HOP-62; Homo sapiens, HOP-62, HOP-62, 20 μM, read-out: % age growth inhibition): ≤ 81%
